Consider 6 molecules from ChEMBL document CHEMBL5338818, “Discovery of the First Potent, Selective, and In Vivo Efficacious Polo-like Kinase 4 Proteolysis Targeting Chimera Degrader for the Treatment of TRIM37-Amplified Breast Cancer” (J Med Chem, 2023).

Calls of active or inactive are those of the source.

One data set relates to CYP2D6. Description: Inhibition of CYP2D6 in human liver microsomes at 10 uM using quinidine as substrate preincubated for 10 mins followed by NADPH regenerating system addition and measured after 15 mins by LC-MS/MS analysis relative to control. Type of data set: ADME, Microsome. To be noted: time 25 min.
Data set [1] in a line: Stability in human plasma assessed as half life at 100 uM after 120 mins by LC-MS/MS analysis. Type of data set: ADME, cell-free.
The next data set deals with MCF7. Description: Antiproliferative activity against human MCF7 cells incubated for 5 days by CCK-8 assay. Particulars: MCF7, 120 h.
The target in data set [2] is T1, Protein cereblon/Serine/threonine-protein kinase PLK4 (Homo sapiens, UniProt O00444+Q96SW2). Description: Protac activity at CRBN/PLK4 in human MCF7 cells at 0.1 uM incubated for 48 hrs by Western blot analysis. The class given is cell-based. A general note: In western blotting, separated proteins are transferred to a membrane and probed.
T1 sequence (Q96SW2 whole entry, looked up, one chain of several): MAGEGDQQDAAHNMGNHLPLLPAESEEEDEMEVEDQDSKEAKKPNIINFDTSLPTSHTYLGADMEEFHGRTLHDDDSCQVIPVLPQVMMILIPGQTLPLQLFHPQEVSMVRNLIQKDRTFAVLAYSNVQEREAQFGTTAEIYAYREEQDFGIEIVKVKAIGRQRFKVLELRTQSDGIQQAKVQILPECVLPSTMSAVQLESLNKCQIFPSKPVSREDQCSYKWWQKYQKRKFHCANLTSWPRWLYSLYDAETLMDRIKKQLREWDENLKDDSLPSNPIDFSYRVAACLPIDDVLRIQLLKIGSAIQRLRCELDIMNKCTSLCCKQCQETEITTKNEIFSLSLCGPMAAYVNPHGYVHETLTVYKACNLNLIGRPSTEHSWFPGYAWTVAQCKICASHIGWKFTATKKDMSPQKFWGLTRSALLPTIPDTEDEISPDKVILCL
Data set [3] deals with T1, Protein cereblon/Serine/threonine-protein kinase PLK4. Nature of the data set: Protac activity at CRBN/PLK4 in human MCF7 cells at 1 uM incubated for 48 hrs by Western blot analysis. Type of data set: cell-based.
For data set [4] the target is unchanged. Nature of the data set: Protac activity at CRBN/PLK4 in human MCF7 cells at 10 uM incubated for 48 hrs by Western blot analysis. The class given is cell-based.
Data set [5] has the same target. Description: Protac activity at CRBN/PLK4 in human MCF7 cells at 1 to 10 nM by Western blot analysis. Type of data set: cell-based. To be noted: dose 1-10 nM, time 6-72 hrs, TDE = time-dependent effect.
Data set [6] addresses T2, Serine/threonine-protein kinase PLK4 (Homo sapiens, UniProt O00444).
T2 sequence (O00444 whole entry): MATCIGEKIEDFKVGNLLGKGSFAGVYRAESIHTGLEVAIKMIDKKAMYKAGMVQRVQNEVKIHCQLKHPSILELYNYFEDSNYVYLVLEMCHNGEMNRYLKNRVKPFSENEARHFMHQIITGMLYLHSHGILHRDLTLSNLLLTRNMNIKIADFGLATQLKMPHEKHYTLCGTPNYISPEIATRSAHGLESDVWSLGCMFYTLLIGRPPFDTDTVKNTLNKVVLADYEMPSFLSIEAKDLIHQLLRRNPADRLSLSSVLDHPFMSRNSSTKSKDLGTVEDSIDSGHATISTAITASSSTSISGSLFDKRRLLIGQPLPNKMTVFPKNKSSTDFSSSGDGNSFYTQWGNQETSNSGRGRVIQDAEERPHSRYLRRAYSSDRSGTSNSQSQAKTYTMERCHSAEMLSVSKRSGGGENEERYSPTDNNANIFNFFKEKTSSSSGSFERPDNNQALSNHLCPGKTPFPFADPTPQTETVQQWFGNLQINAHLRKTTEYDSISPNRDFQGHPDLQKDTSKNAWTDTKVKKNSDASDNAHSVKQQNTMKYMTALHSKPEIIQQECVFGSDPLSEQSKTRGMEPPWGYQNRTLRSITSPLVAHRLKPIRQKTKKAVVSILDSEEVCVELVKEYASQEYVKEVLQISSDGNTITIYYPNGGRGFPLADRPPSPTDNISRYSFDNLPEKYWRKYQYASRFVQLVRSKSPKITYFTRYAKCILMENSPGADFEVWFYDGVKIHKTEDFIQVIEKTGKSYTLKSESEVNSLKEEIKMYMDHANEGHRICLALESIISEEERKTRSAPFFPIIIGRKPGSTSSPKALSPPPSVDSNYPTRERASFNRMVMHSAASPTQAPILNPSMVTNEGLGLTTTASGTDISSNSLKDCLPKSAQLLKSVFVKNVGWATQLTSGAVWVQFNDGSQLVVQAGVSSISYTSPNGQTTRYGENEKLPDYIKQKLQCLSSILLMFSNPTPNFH
Description: Inhibition of PLK4 (unknown origin) incubated for 1 hr in presence of kinase tracer 236 by FRET assay.

Data set [7] has as its target T1, Protein cereblon/Serine/threonine-protein kinase PLK4. Description: Protac activity at CRBN/PLK4 in human MCF7 cells at 10 uM by Western blot analysis. The class given is cell-based.

Broadly, the inhibition is the drop in the measured response relative to a control, in per cent. Low values mean a weak effect, high ones a strong effect. `C=C[C@H]1C[N@@]2CC[C@H]1C[C@@H]2[C@@H](O)c1ccnc2ccc(OC)cc12` [QUINIDINE] came in with an inhibition at 0.25 h, 10 µM in the data set on CYP2D6 of 95.9%.
By half-life is commonly meant the time needed for the level to fall by half in the phase considered. Turning to `CC(C)[N+](C)(CCOC(=O)C1c2ccccc2Oc2ccccc21)C(C)C.[Br-]` [PROPANTHELINE BROMIDE], in data set [1], the half-life at 100 µM came to 19.8 min.
Usually IC50 stands for the concentration that inhibits the measured activity by half. Regarding `Cc1cc(Nc2nc(NCc3ccc(F)cc3F)nc3c2cnn3C2CCN(C(=O)CCCOc3ccc4c(c3)C(=O)N(C3CCC(=O)NC3=O)C4=O)CC2)n[nH]1` (centres undefined), the IC50 in the data set on MCF7 came out at 2150 nM; in data set [6], 1.5 nM. Moreover, the Activity in [2] is 44.6%; in data set [3] it was 53.1%; in data set [4] it was 65.8%; in [5], “Tde”.
For the molecule `Cc1cc(Nc2nc(NCc3ccc(F)cc3F)nc3c2cnn3C2CCN(C(=O)c3ccc(C4CCN(c5ccc6c(c5)C(=O)N(C5CCC(=O)NC5=O)C6=O)CC4)cc3)CC2)n[nH]1` (centres undefined), the IC50 in the data set with MCF7 was 2500 nM; in data set [6], 82.7 nM. Also, the Activity in [2] turned out to be 50.5%; in data set [3], 61.4%; in data set [4] it was 69.9%.
Consider `Cc1cc(Nc2nc(NCc3ccc(F)cc3F)nc3c2cnn3C2CCN(C(=O)C3CN(c4ccc5c(c4)C(=O)N(C4CCC(=O)NC4=O)C5=O)C3)CC2)n[nH]1` (centres undefined), for which the IC50 is 250 nM with MCF7 and 18.9 nM in data set [6]. The Activity in data set [2] is 46.3%; in data set [3], 52.2%; in data set [4], 73.5%.
Turning to `Cc1cc(Nc2nc(NCc3ccc(F)cc3F)nc3c2cnn3C2CCN(C(=O)C3CCN(c4ccc5c(c4)C(=O)N(C4CCC(=O)N(C)C4=O)C5=O)CC3)CC2)n[nH]1` (centres undefined), in data set [7], the outcome was inactive.
